Assay results reported in patent US20240418703A1, “CULTURE MEDIUM FOR PRIMARY OVARIAN CANCER CELLS, CULTURE METHOD AND APPLICATION THEREOF” (PRECEDO PHARMACEUTICALS CO., LTD, priority 2021, published 2024).
Where two headings read alike, the source gives them in different places.

B1: human fibroblast growth factor −10 (protein, UniProt O15520 38-208, looked up)
Fibroblast growth factor 10: QALGQDMVSPEATNSSSSSFSSPSSAGRHVRSYNHLQGDVRWRKLFSFTKYFLKIEKNGKVSGTKKENCPYSILEITSVEIGVVAVKAINSNYYLAMNKKGKLYGSKEFNNDCKLKERIEENGYNTYASFNWQHNGRQMYVALNGKGAPRRGQKTRRKNTSAHFLPMVVHS
notes: medium additive, supplier sino biological
B2: noggin (protein, UniProt Q13253 28-232, looked up)
Noggin: QHYLHIRPAPSDNLPLVDLIEHPDPIFDPKEKDLNETLLRSLLGGHYDPGFMATSPPEDRPGGGGGAAGGAEDLAELDQLLRQRPSGAMPSEIKGLEFSEGLAQGKKQRLSKKLRRKLQMWLWSQTFCPVLYAWNDLGSRFWPRYVKVGSCFSKRSCSVPEGMVCKPSKSVHLTVLRWRCQRRGGQRCGWIPIQYPIISECKCSC
notes: medium additive, supplier R&D
B3: R-spondin1 (protein, UniProt Q2MKA7 21-263, looked up)
R-spondin-1: SRGIKGKRQRRISAEGSQACAKGCELCSEVNGCLKCSPKLFILLERNDIRQVGVCLPSCPPGYFDARNPDMNKCIKCKIEHCEACFSHNFCTKCKEGLYLHKGRCYPACPEGSSAANGTMECSSPAQCEMSEWSPWGPCSKKQQLCGFRRGSEERTRRVLHAPVGDHAACSDTKETRRCTVRRVPCPEGQKRRKGGQGRRENANRNLARKESKEAGAGSRRRKGQQQQQQQGTVGPLTSAGPA
notes: medium additive, supplier R&D
B4: fibroblast growth factors 7 (protein, UniProt P21781 32-194, looked up)
Fibroblast growth factor 7: CNDMTPEQMATNVNCSSPERHTRSYDYMEGGDIRVRRLFCRTQWYLRIDKRGKVKGTQEMKNNYNIMEIRTVAVGIVAIKGVESEFYLAMNKEGKLYAKKECNEDCNFKELILENHYNTYASAKWTHNGGEMFVALNQKGIPVRGKKTKKEQKTAHFLPMAIT
notes: medium additive, supplier R&D
B5: amphiregulin (protein, UniProt P15514 101-187, looked up)
Amphiregulin: SVRVEQVVKPPQNKTESENTSDKPKRKKKGGKNGKNRRNRKKKNPCNAEFQNFCIHGECKYIEHLEAVTCKCQQEYFGERCGEKSMK
modifications: Amphiregulin
notes: medium additive, supplier MCE

What was measured:
[1] = system: primary ovarian cancer cells; experiment: Effect of single additives in Basal Medium on proliferation of primary ovarian cancer cells (cell counting); type: cell-based, human; design: key: +: compared with the Basal Medium, the culture medium added with the additive(s) has the effect of promoting the proliferation of two cases of primary ovarian cancer cells isolated from ovarian cancer tissue; −: the culture medium added with the additive(s) has the effect of promoting the proliferation of one case of primary ovarian cancer cells isolated from ovarian cancer tissue; the culture medium added with the additive(s) has no significant effect on the proliferation of at least two cases of primary ovarian cancer cells isolated from ovarian cancer tissue
Experimental: First, a Basal Medium containing initial medium was prepared. The initial medium may be selected from the group consisting of DMEM/F12, DMEM, F12, or RPMI-1640 commonly used in the art. In this example, the formulation of the Basal Medium is: DMEM/F12 medium (purchased from Corning)+100 μg/mL Primocin (purchased from InvivoGen, 0.2% (v/v), commercial product has a concentration of 50 mg/mL). Different types of additives (see Table 1) were added to the Basal Medium to prepare culture mediums for primary ovarian cancer cells with different components.
Tissue samples (intraoperative) of ovarian cancer solid tumor were obtained from patients by professional medical practitioner of professional medical institutions, and all patients have signed the informed consent. Intraoperative samples having the size of 0.25 cm^3, endoscopic samples having the size of 0.025 cm^3 were stored and transported using commercial tissue preservation solution (manufacturer: Miltenyi Biotec).
Tissue digestion solution: 1640 medium (Corning, 10-040-CVR), collagenase II (2 mg/mL), collagenase IV (2 mg/mL), DNase (50 U/mL), hyaluronidase (0.75 mg/mL), calcium chloride (3.3 mM), BSA (10 mg/mL).
• 3.1. Tissue samples were transferred from the ultra-clean workbench to a culture dish, and the tissue with blood was removed. The tissue samples were rinsed twice with Basal Medium, and then were transferred to another culture dish and mechanically cut with a sterile scalpel into tissue blocks of 1×1×1 mm^3 in size. • 3.2. The cut intraoperative tissues were aspirated into a 15 mL centrifuge tube, to which 5 mL of Basal Medium was added, fully mixed, and then centrifuged at 1500 rpm for 4 minutes. • 3.3. The supernatant was discarded, and the resultant was added with 1:3 mixture of Basal Medium and tissue digestion solution (the amount of tissue digestion solution added was about 10 mL tissue digestion solution for 1 g of tumor tissue). The samples were marked with names and numbers, sealed with sealing film, and then digested in a shaker (Zhichu Instrument ZQLY-180N) at 37° C., 300 rpm. The completion of digestion was determined via observation every 30 minutes, based on the existing of visible particles or not. The digestion time was 4 hours. • 3.4. After the digestion was completed, undigested tissue mass was filtered out through a […] filter mash. The tissue mass on the filter mash was rinsed into the centrifuge tube with Basal Medium to reduce cell loss. The resultant was centrifuged at 25° C., 1500 rpm for 4 minutes. • 3.5. […] If there were blood cells, 8 mL blood cell lysate (purchased from Sigma) was added in the resultant and fully mixed, lysed at 4° C. for 20 minutes, with inverting and mixing once during the process. The resultant was centrifuged at 25° C., 1500 rpm for 4 minutes. • 3.6. The supernatant was discarded and 2 mL Basal Medium was added to resuspend the cells for reserve.
• 4.1. Microscopic observation: a small amount of resuspended cells were plated in a culture dish, and the density and morphology of cancer cells were observed under a microscope (CNOPTEC, BDS400); • 4.2. Viable cell counting: 12 μL of the resuspended cell suspension was fully mixed with 12 μL of trypan blue staining solution (Sangon Biotech (Shanghai) Co., Ltd.), and then 20 μL of the mixture was added into a cell counting plate (Countstar, specifications: 50 pieces/box).
The primary ovarian cancer cells isolated from 2 cases of ovarian cancer tissues (numbered L40 and LQQ) according to the above step (2) were resuspended in the culture medium in Table 1, respectively and the cell number was counted. The Basal Medium was mixed with matrigel (Corning®, 356231) in a 50:1 ratio on ice. 300 μL of the mixture was plated and incubated in a 5% CO2 incubator at 37° C. for 25-35 minutes, preferably 30 minutes. The supernatant was discarded. […]

[2] = system: primary ovarian cancer cells; experiment: Effect of different concentrations of added factors on proliferation of primary ovarian cancer cells (ratio to Blank Control); type: cell-based, human
[3] = additive in Basal Medium at the final concentration, samples L40 and LQQ, 7-10 days of culture, versus Basal Medium
[4] = factor added to the medium lacking it, FIGS. 2A-2L
[5] = samples A26083, L56, L62, FIGS. 2A-2L

Row | Molecule | Level of promoting proliferation [1, 3] | proliferation-promoting effect on primary ovarian cancer cells [2, 5] | further results
1 | Cc1c[nH]c(-c2cnc(NCCNc3ccc(C#N)cn3)nc2-c2ccc(Cl)cc2Cl)n1 [CHIR99021, reference compound] | ○ |  | 
2 | CN1C(=O)C(c2c(F)cccc2F)N(C)c2nc(Nc3ccc(S(N)(=O)=O)cc3)ncc21 (centres unmarked) [Compound 1, 4-((7-(2,6-Difluorophenyl)-5,8-dimethyl-6-oxo-5,6,7,8-tetrahydropteridin-2-yl)amino)benzsulfamide] | + | significant proliferation-promoting effect | concentration at which the cell proliferation effect is most significant [2, 4]: 5 µM
3 | Cc1cccc(-c2nn(C(=S)Nc3ccccc3)cc2-c2ccnc3ccccc23)n1 [Compound A8301, A8301, reference compound] | ○ |  | 
4 | C[C@@H](N)[C@H]1CC[C@H](C(=O)Nc2ccncc2)CC1 [Compound Y-27632, Y-27632, reference compound] | + | significant proliferation-promoting effect | concentration at which the cell proliferation effect is most significant [2, 4]: 5 µM
5 | Oc1ccc(-c2nc(-c3ccncc3)c(-c3ccc(F)cc3)[nH]2)cc1 [SB202190, reference compound] | ○ |  | 
6 | NC(=O)c1ccc(-c2nc(-c3ccc4c(c3)OCO4)c(-c3ccccn3)[nH]2)cc1 [SB431542, reference compound] | ○ |  | 
7 | C[C@]12CCC(=O)C=C1CC[C@@H]1[C@@H]2[C@@H](O)C[C@@]2(C)[C@H]1CC[C@]2(O)C(=O)CO [hydrocortisone, reference compound] | ○ |  | 
8 | NC(=O)c1cccnc1 [nicotinamide, reference compound] | ○ |  | 
9 | CCCCC[C@H](O)/C=C/[C@H]1[C@H](O)CC(=O)[C@@H]1C/C=C\CCCC(=O)O [prostaglandin E2, reference compound] | − | significant proliferation-promoting effect | concentration at which the cell proliferation effect is most significant [2, 4]: 2.5 µM
10 | CC(=O)C(=O)[O-].[Na+] [sodium pyruvate, reference compound] | ○ |  | 
11 | basic fibroblast growth factor | ○ |  | 
12 | cholera toxin |  |  | Level of promoting proliferation [1]: +; concentration at which the cell proliferation effect is most significant [2]: 0.1 µg/mL; more preferable amount according to the results of this example [2]: 0.05 to 0.2 µg/mL; preferable amount according to the results of this example [2]: 50 to 800 ng/mL; proliferation-promoting effect on primary ovarian cancer cells [2]: significant proliferation-promoting effect
13 | epidermal growth factor | − | significant proliferation-promoting effect | preferable amount according to the results of this example ([2]; preferably, FIGS. 2A-2L): 2.5 to 40 ng/mL
14 | hepatocyte growth factor | ○ |  | 
15 | insulin | + | significant proliferation-promoting effect | concentration at which the cell proliferation effect is most significant [2, 4]: 9 µg/mL; more preferable amount according to the results of this example ([2]; more preferably, FIGS. 2A-2L): 3 to 9 µg/mL
16 | insulin-like growth factor-1 | + | significant proliferation-promoting effect | concentration at which the cell proliferation effect is most significant [2, 4]: 0.05 µg/mL; preferable amount according to the results of this example ([2]; preferably, FIGS. 2A-2L): 25 to 100 ng/mL
17 | neuregulin −1 | ○ |  | 
18 | vitamin E [reference compound] | ○ |  | 
19 | B1 | ○ |  | 
20 | B2 | ○ |  | 
21 | B3 | ○ |  | 
22 | B4 | ○ |  | 
23 | B5 | + | significant proliferation-promoting effect | concentration at which the cell proliferation effect is most significant [2, 4]: 0.003 µg/mL; preferable amount according to the results of this example ([2]; preferably, FIGS. 2A-2L): 1 to 81 ng/mL
